# Measurements as given in patent publication US20220324770A1, “NITRIFICATION INHIBITORS” (The University of Melbourne, priority 2019, published 2022).
# How the values were obtained:
# Terang soil = assay: Soil microcosm incubation (nitrification of applied ammonium), Terang soil
# Method: The soil used in this study was collected from four different locations in Victoria, Australia: (i) a wheat cropping soil from Horsham (36° 45′S, 142° 07′ E), (ii) a rotational cropping soil from Dahlen (36° 37′S, 142° 09′ E), (iii) a vegetable growing soil from Clyde (38° 08′S, 145° 20′ E), and (iv) a pasture soil from Terang (38° 15′S, 142° 52′E). In addition, a sugarcane cropping soil from South Johnstone in northern Queensland (17° 34′S, 145° 57′ E) was also studied. The water content of the soil was calculated before commencing each experiment, from samples that were oven-dried to constant weight. The soil's water-filled pore space (WFPS) was in the range 52%-61%, which is within the recommended 50-70% range for microbial activity due to oxygen and nutrient availability (Fichtner, T., et al., Applied Sciences, 2019, 9, 496).
# Soil microcosm incubations were carried out in 250 ml polypropylene specimen containers (Sarstedt, Germany), containing 18.24 g oven dry-weight equivalent of soil. Microcosms were re-wetted and pre-incubated at the test temperature for seven days to revive soil microbial activity. Following pre-incubation, the remaining volume to reach the desired water-filled pore spaces (WFPS %) was applied as one of the following treatment solutions; (NH4)2SO4(Control), (NH4)2SO4+DMPP, or (NH4)2SO4+one of Compounds 1-23. Each treatment was applied in triplicate per soil type, so that n=3 at each time point.
# Treatment solutions were prepared such that each microcosm received (NH4)2SO4 at a rate of 100 mg N per kg soil, Compounds 1-23 at 10 mol % of applied N, or DMPP at one of 1.5, 3.6 or 10 mol % of applied N, referred to as L-DMPP, M-DMPP or H-DMPP respectively.
# The microcosms were incubated for 0, 3, 7, 14, 21 or 28 days, where day 0 samples were extracted following 1-hour incubation post-treatment. Soil microcosms were aerated and moisture levels were replenished based on weight loss every few days throughout the incubation period.
# At the end of each incubation period, soil microcosms were destructively sampled by treatment with 2M KCl (100 mL). After shaking for 1 hour, soil-KCl solutions were filtered (Whatman 42) before storing the filtrates at −20° C. until the conclusion of the experiment. All KCl extracts were then analysed by Segmented Flow Analysis (San++, Skalar, Breda, The Netherlands) for the concentration of nitrogen from ammonium (NH4^+—N) and nitrogen from NO3 and NO2 (NOx^−—N) after appropriate dilutions. Results are reported as the mean of three replicates, errors reported are standard errors of the mean.
# Nitrification calculations were performed as previously reported (Aulakh, M., et al., Biology and Fertility of Soils 2001, 33, 258-263; Mahmood, T., et al., Soil Research 2017, 55, 715-722) without correction for the initial baseline concentrations of NH4^+—N or NO3^− N in the untreated soil. For each treatment nitrified NH4^+—N (%) was calculated according to eqn. 1:
# where [NH4^+—N]0 is the NH4^+—N concentration (in mg N kg^−1 soil) of the soil on day 0 and [NH4^+—N]t is the NH4^+—N concentration (in mg N kg^−1 soil) of the soil at a given time point t.
# Horsham soil = assay: Soil microcosm incubation (nitrification of applied ammonium), Horsham soil
# Dahlen soil = assay: Soil microcosm incubation (nitrification of applied ammonium), Dahlen soil; conditions: for Nitrified NH4+—N (%) Day 3 / Nitrified NH4+—N (%) Day 7 / Nitrified NH4+—N (%) Day 14 / Nitrified NH4+—N (%) Day 21 / Nitrified NH4+—N (%) Day 28: 10 mol %
# South Johnstone soil = assay: Soil microcosm incubation (nitrification of applied ammonium), South Johnstone soil; conditions: for Nitrified NH4+—N (%) Day 3 / Nitrified NH4+—N (%) Day 7 / Nitrified NH4+—N (%) Day 14 / Nitrified NH4+—N (%) Day 21 / Nitrified NH4+—N (%) Day 28: 10 mol %
# [1] = ranging from no effect; cited from earlier work
# [2] = Horsham soil pH 8.8, 25° C., 10 mol %
# [3] = Horsham soil pH 8.8, 35° C., 10 mol %
# [4] = Table 4, Dahlen soil pH 7.3, 25° C.
# [5] = Table 4, Dahlen soil pH 7.3, 35° C.
# [6] = Table 5, Dahlen soil pH 7.3, 25° C.
# [7] = Table 5, Dahlen soil pH 7.3, 35° C.
# [8] = South Johnstone soil pH 5.0, 25° C.
# [9] = South Johnstone soil pH 5.0, 35° C.
smiles,measurement,setting,value
"Cc1c[nH]nc1C.O=P(O)(O)O [DMPP, 3,4-dimethylpyrazole phosphate, reference compound]",Nitrified NH4+—N (%) Day 3,"Terang soil; Terang soil pH 6.5, 25° C., day 3, compounds 10 mol % of applied N, L-DMPP 1.5 mol %, (NH4)2SO4 100 mg N per kg soil",23.5 ± 3.7%
same,Nitrified NH4+—N (%) Day 7,"Terang soil; Terang soil pH 6.5, 25° C., day 7, compounds 10 mol %, L-DMPP 1.5 mol %",47.8 ± 2.0%
same,Nitrified NH4+—N (%) Day 14,"Terang soil; Terang soil pH 6.5, 25° C., day 14, compounds 10 mol %, L-DMPP 1.5 mol %",89.6 ± 3.1%
same,Nitrified NH4+—N (%) Day 28,"Terang soil; Terang soil pH 6.5, 25° C., day 28, compounds 10 mol %, L-DMPP 1.5 mol %",100 ± 2.5%
same,retaining NH4+—N in the soil compared with the fertilised control,"Terang soil; Terang soil, 25° C.",most effective treatments
same,Nitrified NH4+—N (%) Day 3,"Horsham soil; Horsham soil pH 8.8, 25° C., inhibitors 10 mol % of applied N",−6.9 ± 2.8%
same,Nitrified NH4+—N (%) Day 7,Horsham soil; [2],8.5 ± 2.8%
same,Nitrified NH4+—N (%) Day 14,Horsham soil; [2],37.2 ± 2.3%
same,Nitrified NH4+—N (%) Day 21,Horsham soil; [2],75.7 ± 5.4%
same,Nitrified NH4+—N (%) Day 28,Horsham soil; [2],76.2 ± 2.1%
same,Nitrified NH4+—N (%) Day 3,Horsham soil; [3],7.9 ± 3.0%
same,Nitrified NH4+—N (%) Day 7,Horsham soil; [3],18.9 ± 2.8%
same,Nitrified NH4+—N (%) Day 14,Horsham soil; [3],32.3 ± 4.1%
same,Nitrified NH4+—N (%) Day 21,Horsham soil; [3],46.6 ± 5.9%
same,Nitrified NH4+—N (%) Day 28,Horsham soil; [3],64.5 ± 12.7%
same,NOx−—N accumulation: effect of temperature (25° C. vs 35° C.),"Horsham soil; Horsham soil, 28-day incubation",greatest increase in production rate at the higher test temperature
same,retaining NH4+ and preventing NOx production (statistics vs control),"Horsham soil; Horsham soil, 35° C.",performed statistically better
same,NH4+—N consumption,"Horsham soil; Horsham soil, 35° C., after 28 days",65%
same,performance at higher temperature,"Dahlen soil; Dahlen soil, 35° C. vs 25° C.",performed significantly poorer at the higher temperature
same,retaining NH4+—N vs (NH4)2SO4-treated control by day 28,"Dahlen soil; Dahlen soil, 35° C., Table 5 test",remain highly effective
same,nitrified ammonia,"Dahlen soil; Dahlen soil, 35° C., day 21 (Table 5)",52%
same,Nitrified NH4+—N (%) Day 3,Dahlen soil; [4],2.1 ± 2.8%
same,Nitrified NH4+—N (%) Day 7,Dahlen soil; [4],11.7 ± 6.7%
same,Nitrified NH4+—N (%) Day 14,Dahlen soil; [4],17.3 ± 12.7%
same,Nitrified NH4+—N (%) Day 21,Dahlen soil; [4],18.2 ± 6.6%
same,Nitrified NH4+—N (%) Day 28,Dahlen soil; [4],18.6 ± 4.9%
same,Nitrified NH4+—N (%) Day 3,Dahlen soil; [5],2.4 ± 3.0%
same,Nitrified NH4+—N (%) Day 7,Dahlen soil; [5],24.8 ± 2.7%
same,Nitrified NH4+—N (%) Day 14,Dahlen soil; [5],25.6 ± 3.8%
same,Nitrified NH4+—N (%) Day 21,Dahlen soil; [5],48.3 ± 6.4%
same,Nitrified NH4+—N (%) Day 28,Dahlen soil; [5],60.5 ± 8.4%
same,Nitrified NH4+—N (%) Day 3,"Dahlen soil; Table 5 (further comparative test), Dahlen soil pH 7.3, 25° C.",4.9 ± 3.1%
same,Nitrified NH4+—N (%) Day 7,Dahlen soil; [6],11.0 ± 3.2%
same,Nitrified NH4+—N (%) Day 14,Dahlen soil; [6],17.4 ± 4.2%
same,Nitrified NH4+—N (%) Day 21,Dahlen soil; [6],28.7 ± 5.2%
same,Nitrified NH4+—N (%) Day 28,Dahlen soil; [6],21.8 ± 3.3%
same,Nitrified NH4+—N (%) Day 3,Dahlen soil; [7],15.3 ± 2.9%
same,Nitrified NH4+—N (%) Day 7,Dahlen soil; [7],15.8 ± 2.5%
same,Nitrified NH4+—N (%) Day 14,Dahlen soil; [7],16.0 ± 6.0%
same,Nitrified NH4+—N (%) Day 21,Dahlen soil; [7],51.5 ± 5.4%
same,Nitrified NH4+—N (%) Day 28,Dahlen soil; [7],38.5 ± 2.9%
same,Nitrified NH4+—N (%) Day 3,"South Johnstone soil; South Johnstone soil pH 5.0, 25° C., negative = NH4+—N higher than day 0 (mineralisation)",−12.5 ± 8.8%
same,Nitrified NH4+—N (%) Day 7,South Johnstone soil; [8],−10.3 ± 0.7%
same,Nitrified NH4+—N (%) Day 14,South Johnstone soil; [8],−12.5 ± 0.6%
same,Nitrified NH4+—N (%) Day 21,South Johnstone soil; [8],−12.0 ± 1.6%
same,Nitrified NH4+—N (%) Day 28,South Johnstone soil; [8],−7.5 ± 0.5%
same,Nitrified NH4+—N (%) Day 3,South Johnstone soil; [9],−12.3 ± 1.2%
same,Nitrified NH4+—N (%) Day 7,South Johnstone soil; [9],−25.3 ± 0.9%
same,Nitrified NH4+—N (%) Day 14,South Johnstone soil; [9],−28.1 ± 1.3%
same,Nitrified NH4+—N (%) Day 21,South Johnstone soil; [9],−23.0 ± 2.3%
same,Nitrified NH4+—N (%) Day 28,South Johnstone soil; [9],−0.90 ± 2.3%
same,"effectiveness among the treatments (NH4+—N retention, NOx−—N growth)","South Johnstone soil; South Johnstone soil, 25° C., days 21 and 28",least effective
same,inhibition in field studies for reducing leaching and N2O emissions,[1],≤ 70%
